pIC50: −log10 of the molar value. One block for each compound: values may come before it.
Columns and labels:
[1] = system: HEK293T; experiment: Selectivity ratio of IC50 for Flag-tagged HDAC1 (unknown origin) expressed in 293T cells to IC50 for Flag-tagged HDAC6 (unknown origin) expressed in 293T cells; type: cell-based; settings: Homo sapiens
[2] = target: T1, Protein deacetylase HDAC6 (Homo sapiens, UniProt Q9UBN7); experiment: Inhibition of Flag-tagged HDAC6 (unknown origin) expressed in 293T cells using ZMAL as substrate incubated for 180 mins by fluorescence method; parameters: species or system HEK293T
T1 sequence (Q9UBN7 whole entry): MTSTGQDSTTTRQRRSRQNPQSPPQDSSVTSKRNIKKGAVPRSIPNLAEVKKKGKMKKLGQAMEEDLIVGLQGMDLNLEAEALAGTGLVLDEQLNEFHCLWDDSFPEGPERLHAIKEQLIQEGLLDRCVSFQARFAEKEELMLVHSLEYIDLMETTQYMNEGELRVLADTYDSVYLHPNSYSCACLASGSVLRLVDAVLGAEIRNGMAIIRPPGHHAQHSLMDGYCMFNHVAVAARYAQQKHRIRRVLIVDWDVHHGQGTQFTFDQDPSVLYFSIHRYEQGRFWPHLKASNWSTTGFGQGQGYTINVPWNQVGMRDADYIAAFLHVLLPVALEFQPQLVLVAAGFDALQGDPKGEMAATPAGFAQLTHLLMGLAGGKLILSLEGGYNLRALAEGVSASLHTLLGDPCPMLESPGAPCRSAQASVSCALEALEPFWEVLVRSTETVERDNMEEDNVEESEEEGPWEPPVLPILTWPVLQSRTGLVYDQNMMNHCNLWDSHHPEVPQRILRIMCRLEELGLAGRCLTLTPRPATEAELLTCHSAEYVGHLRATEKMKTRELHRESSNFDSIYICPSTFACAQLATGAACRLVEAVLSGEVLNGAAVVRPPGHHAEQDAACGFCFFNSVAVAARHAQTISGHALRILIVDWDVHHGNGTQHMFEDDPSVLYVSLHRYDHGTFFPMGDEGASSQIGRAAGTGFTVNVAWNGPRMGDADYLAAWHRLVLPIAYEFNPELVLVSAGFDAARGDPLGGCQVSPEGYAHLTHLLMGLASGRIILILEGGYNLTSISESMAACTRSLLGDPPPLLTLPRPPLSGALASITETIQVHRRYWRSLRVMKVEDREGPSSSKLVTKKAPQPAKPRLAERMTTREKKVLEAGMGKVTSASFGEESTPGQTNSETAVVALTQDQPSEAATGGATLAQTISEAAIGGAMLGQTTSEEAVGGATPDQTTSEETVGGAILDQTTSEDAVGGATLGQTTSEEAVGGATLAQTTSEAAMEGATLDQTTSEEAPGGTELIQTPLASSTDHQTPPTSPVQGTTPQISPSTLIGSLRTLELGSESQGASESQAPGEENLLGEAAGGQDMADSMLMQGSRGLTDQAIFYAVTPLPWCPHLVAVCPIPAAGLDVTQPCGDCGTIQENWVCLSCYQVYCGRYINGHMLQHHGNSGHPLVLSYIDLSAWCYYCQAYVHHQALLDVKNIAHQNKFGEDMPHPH

[3] = system: MCF7; experiment: Antiproliferative activity against human MCF7 incubated for 72 hrs by MTT assay; type: functional
[4] = target: T2, Histone deacetylase 1 (Homo sapiens, UniProt Q13547); experiment: Inhibition of Flag-tagged HDAC1 (unknown origin) expressed in 293T cells using ZMAL as substrate incubated for 180 mins by fluorescence method; parameters: species or system HEK293T
[5] = target: T3, Polyamine deacetylase HDAC10 (Homo sapiens, UniProt Q969S8); experiment: Inhibition of N-terminal Flag tagged- human HDAC10 (2 to 631 amino acids) expressed in baculovirus infected Sf9 cells using Fluor deLys substrate by fluorescence method
T3 sequence (Q969S8 whole entry): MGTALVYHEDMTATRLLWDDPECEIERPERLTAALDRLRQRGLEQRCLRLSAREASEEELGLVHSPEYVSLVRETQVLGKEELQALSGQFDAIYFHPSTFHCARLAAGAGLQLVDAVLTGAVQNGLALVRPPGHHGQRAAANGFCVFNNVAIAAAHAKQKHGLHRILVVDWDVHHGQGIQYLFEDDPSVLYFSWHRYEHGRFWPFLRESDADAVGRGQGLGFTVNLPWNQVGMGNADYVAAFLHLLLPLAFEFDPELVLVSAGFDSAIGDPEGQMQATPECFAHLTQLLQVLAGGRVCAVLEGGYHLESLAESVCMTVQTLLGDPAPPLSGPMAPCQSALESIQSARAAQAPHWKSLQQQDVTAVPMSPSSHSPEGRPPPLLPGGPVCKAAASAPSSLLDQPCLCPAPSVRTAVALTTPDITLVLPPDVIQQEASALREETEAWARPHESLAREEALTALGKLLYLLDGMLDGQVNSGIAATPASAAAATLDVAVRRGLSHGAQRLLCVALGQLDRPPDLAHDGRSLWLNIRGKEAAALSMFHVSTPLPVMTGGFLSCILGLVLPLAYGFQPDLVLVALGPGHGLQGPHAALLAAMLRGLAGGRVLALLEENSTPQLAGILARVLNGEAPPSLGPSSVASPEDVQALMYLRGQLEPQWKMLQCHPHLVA

[6] = target: T4, Histone deacetylase 5 (Homo sapiens, UniProt Q9UQL6); experiment: Inhibition of human HDAC5 using Fluor deLys substrate by fluorescence method
[7] = target: T5, Histone deacetylase 4 (Homo sapiens, UniProt P56524); experiment: Inhibition of human HDAC4 expressed in sf9 cells using Fluor deLys substrate by fluorescence method
[8] = species on record: Homo sapiens; experiment: Selectivity ratio of IC50 for human HDAC4 to IC50 for human HDAC6
[9] = species on record: Homo sapiens; experiment: Selectivity ratio of IC50 for human HDAC1 to IC50 for human HDAC6
[10] = target: T3, Polyamine deacetylase HDAC10; experiment: Inhibition of HDAC10 (unknown origin)
[11] = target: Histone deacetylase 9 (Homo sapiens, UniProt Q9UKV0); experiment: Inhibition of HDAC9 (unknown origin)
[12] = target: T4, Histone deacetylase 5; experiment: Inhibition of HDAC5 (unknown origin)
[13] = target: T5, Histone deacetylase 4; experiment: Inhibition of HDAC4 (unknown origin)
[14] = target: Histone deacetylase 3 (Homo sapiens, UniProt O15379); experiment: Inhibition of HDAC3 (unknown origin)
[15] = target: T2, Histone deacetylase 1; experiment: Inhibition of HDAC1 (unknown origin)
[16] = target: Histone deacetylase 2 (Homo sapiens, UniProt Q92769); experiment: Inhibition of HDAC2 (unknown origin)
[17] = target: Histone deacetylase 11 (Homo sapiens, UniProt Q96DB2); experiment: Inhibition of HDAC11 (unknown origin)
[18] = target: Histone deacetylase 8 (Homo sapiens, UniProt Q9BY41); experiment: Inhibition of HDAC8 (unknown origin)
[19] = target: T1, Protein deacetylase HDAC6; experiment: Inhibition of HDAC6 (unknown origin)
[20] = species on record: Homo sapiens; experiment: Selectivity ratio of IC50 for human HDAC3 to IC50 for human HDAC6
[21] = species on record: Homo sapiens; experiment: Selectivity ratio of IC50 for human HDAC8 to IC50 for human HDAC6
[22] = species on record: Homo sapiens; experiment: Selectivity ratio of IC50 for human HDAC11 to IC50 for human HDAC6
[23] = species on record: Homo sapiens; experiment: Selectivity ratio of IC50 for human HDAC9 to IC50 for human HDAC6
[24] = species on record: Homo sapiens; experiment: Selectivity ratio of IC50 for human HDAC10 to IC50 for human HDAC6
[25] = species on record: Homo sapiens; experiment: Selectivity ratio of IC50 for human HDAC5 to IC50 for human HDAC6
[26] = species on record: Homo sapiens; experiment: Selectivity ratio of IC50 for human HDAC7 to IC50 for human HDAC6
[27] = species on record: Homo sapiens; experiment: Selectivity ratio of IC50 for human HDAC2 to IC50 for human HDAC6
[28] = target: T1, Protein deacetylase HDAC6; experiment: Inhibition of recombinant human HDAC6 expressed in baculovirus infected sf9 cells using fluor-de-Lys-SIRT1 as substrate by fluorescence method

T2 sequence (Q13547 whole entry, the tested form may be a part): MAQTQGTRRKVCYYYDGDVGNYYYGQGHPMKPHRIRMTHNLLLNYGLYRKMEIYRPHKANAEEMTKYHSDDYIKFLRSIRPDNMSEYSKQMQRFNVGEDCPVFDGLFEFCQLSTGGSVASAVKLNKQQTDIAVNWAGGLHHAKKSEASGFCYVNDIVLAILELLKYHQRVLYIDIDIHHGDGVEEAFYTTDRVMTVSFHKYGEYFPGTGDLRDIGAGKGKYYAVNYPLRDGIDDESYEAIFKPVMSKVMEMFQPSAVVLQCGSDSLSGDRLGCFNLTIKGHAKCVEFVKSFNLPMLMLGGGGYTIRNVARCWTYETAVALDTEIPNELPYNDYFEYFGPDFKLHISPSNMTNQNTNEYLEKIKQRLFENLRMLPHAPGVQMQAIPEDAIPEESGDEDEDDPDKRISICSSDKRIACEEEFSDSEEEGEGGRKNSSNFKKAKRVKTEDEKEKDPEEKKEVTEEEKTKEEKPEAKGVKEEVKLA
T5 sequence (P56524 whole entry): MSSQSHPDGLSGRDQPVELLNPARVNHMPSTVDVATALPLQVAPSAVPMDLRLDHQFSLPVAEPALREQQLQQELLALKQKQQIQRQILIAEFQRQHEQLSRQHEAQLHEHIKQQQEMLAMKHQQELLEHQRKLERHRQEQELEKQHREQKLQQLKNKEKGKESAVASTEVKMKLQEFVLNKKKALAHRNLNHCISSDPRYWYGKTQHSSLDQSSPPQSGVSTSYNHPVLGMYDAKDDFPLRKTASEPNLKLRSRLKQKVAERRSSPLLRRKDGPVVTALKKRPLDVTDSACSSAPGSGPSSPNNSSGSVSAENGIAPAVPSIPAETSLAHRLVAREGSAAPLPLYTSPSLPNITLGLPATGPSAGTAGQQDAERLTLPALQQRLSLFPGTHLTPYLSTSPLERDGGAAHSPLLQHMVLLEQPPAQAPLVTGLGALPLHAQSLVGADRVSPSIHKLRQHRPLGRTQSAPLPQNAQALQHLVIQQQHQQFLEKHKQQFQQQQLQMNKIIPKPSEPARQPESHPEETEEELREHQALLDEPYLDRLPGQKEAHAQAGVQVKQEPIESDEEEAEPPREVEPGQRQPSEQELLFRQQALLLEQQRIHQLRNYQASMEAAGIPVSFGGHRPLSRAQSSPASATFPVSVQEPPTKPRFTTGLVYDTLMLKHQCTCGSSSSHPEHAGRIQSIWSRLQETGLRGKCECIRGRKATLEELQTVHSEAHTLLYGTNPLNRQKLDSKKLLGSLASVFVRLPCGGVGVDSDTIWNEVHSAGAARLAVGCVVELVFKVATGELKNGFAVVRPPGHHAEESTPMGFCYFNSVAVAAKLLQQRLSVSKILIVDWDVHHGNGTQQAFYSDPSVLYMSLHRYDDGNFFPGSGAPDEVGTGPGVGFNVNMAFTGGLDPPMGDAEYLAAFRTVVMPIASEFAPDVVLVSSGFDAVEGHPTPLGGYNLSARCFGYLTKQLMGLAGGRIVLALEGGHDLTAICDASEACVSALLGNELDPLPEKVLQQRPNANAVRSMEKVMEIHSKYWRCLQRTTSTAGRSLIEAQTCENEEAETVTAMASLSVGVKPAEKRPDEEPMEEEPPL
T4 sequence (Q9UQL6 whole entry): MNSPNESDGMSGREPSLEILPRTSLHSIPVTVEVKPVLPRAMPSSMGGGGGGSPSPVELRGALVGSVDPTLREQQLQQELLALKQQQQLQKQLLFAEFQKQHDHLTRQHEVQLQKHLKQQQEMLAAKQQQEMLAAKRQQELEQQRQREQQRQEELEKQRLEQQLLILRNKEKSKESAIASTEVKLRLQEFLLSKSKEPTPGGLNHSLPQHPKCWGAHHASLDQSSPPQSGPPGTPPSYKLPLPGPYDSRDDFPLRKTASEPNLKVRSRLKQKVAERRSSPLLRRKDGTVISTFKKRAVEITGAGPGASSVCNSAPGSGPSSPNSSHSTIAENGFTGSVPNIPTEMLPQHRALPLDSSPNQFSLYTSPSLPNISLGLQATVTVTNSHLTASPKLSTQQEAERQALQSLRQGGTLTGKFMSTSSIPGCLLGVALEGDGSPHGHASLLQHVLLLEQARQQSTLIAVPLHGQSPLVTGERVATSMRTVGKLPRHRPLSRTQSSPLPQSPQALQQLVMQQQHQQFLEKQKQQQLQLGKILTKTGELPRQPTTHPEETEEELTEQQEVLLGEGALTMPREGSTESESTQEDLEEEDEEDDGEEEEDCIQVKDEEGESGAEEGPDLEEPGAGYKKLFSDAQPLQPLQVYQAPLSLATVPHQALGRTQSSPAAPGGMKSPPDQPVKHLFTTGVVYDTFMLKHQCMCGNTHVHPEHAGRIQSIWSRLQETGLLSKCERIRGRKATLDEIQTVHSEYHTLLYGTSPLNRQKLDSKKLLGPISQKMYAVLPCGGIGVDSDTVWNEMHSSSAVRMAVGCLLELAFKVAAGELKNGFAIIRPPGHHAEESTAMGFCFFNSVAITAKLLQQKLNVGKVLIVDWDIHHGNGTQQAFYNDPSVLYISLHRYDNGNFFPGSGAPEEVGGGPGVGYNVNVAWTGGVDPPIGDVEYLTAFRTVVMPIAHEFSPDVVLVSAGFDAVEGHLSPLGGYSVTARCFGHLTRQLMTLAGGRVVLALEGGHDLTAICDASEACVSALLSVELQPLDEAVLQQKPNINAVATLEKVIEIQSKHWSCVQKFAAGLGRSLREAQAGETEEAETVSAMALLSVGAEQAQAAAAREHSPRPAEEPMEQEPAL
Histone deacetylase 2, sequence (Q92769 whole entry): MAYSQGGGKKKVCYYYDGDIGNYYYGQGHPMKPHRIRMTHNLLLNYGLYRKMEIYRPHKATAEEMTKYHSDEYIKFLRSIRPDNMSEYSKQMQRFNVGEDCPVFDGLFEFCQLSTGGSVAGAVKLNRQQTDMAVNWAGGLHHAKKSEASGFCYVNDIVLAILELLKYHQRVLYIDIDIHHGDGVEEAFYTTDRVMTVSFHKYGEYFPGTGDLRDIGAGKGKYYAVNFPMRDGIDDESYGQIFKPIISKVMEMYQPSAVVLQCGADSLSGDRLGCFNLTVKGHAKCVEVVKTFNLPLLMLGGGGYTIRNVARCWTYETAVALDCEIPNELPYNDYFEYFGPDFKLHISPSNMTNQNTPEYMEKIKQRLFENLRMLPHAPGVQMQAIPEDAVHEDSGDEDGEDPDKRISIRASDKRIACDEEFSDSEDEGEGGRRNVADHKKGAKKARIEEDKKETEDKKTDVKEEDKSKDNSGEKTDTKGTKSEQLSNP
Histone deacetylase 3, sequence (O15379 whole entry): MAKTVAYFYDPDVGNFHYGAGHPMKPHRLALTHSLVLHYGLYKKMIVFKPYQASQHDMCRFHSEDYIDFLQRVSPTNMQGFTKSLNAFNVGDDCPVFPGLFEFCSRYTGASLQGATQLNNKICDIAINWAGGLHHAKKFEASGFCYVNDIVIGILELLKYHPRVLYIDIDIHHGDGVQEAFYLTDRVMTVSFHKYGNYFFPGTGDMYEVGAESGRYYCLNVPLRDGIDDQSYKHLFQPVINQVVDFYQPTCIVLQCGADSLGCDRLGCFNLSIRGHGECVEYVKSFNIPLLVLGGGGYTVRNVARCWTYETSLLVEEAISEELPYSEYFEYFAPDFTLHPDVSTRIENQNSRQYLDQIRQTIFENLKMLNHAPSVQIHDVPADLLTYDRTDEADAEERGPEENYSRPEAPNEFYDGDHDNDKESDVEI
Histone deacetylase 11, sequence (Q96DB2 whole entry): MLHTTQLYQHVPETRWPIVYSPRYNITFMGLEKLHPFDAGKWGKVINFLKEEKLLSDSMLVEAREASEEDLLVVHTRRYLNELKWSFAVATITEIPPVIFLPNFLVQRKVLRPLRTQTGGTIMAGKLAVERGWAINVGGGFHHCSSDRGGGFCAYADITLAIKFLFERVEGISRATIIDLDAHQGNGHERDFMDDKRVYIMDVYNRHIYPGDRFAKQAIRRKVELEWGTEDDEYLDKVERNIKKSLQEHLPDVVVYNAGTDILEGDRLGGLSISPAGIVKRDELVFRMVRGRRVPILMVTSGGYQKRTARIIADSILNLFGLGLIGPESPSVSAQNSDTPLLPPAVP
Histone deacetylase 8, sequence (Q9BY41 whole entry): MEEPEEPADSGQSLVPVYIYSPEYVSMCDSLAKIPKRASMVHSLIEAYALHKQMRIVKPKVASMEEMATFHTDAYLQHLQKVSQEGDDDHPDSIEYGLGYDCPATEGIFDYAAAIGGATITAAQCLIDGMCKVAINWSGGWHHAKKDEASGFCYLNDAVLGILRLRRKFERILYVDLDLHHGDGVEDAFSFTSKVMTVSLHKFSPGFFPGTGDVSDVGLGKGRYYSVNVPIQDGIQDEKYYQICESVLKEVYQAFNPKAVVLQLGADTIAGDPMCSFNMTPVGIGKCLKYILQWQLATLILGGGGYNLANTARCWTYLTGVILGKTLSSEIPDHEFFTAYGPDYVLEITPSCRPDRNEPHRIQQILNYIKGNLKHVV

Compound: COC(=O)[C@H](Cc1ccccn1)NC(=O)CCCCCCC(=O)NO
- Ratio IC50 [1]: 25
- pIC50 [2]: 5.40
- GI50 [3]: 104000 nM
- pIC50 [4]: 4.00

Compound: O=C(NO)c1ccc(Cn2c3c(c4ccccc42)CS(=O)(=O)CC3)cc1
- Ratio IC50 [8]: 842
- Ratio IC50 [9]: 5790

Compound: O=C(NO)c1ccc(NCc2csc3ccccc23)cc1
- Ratio IC50 [20]: > 100
- Ratio IC50 [21]: > 100
- Ratio IC50 [22]: > 100
- Ratio IC50 [23]: > 100
- Ratio IC50 [24]: > 100
- Ratio IC50 [25]: > 100
- Ratio IC50 [26]: > 100
- Ratio IC50 [8]: > 100
- Ratio IC50 [9]: > 100
- Ratio IC50 [27]: > 100

Next, values leading:

- pIC50 [5]: 6.38
- pIC50 [6]: 6.40
- pIC50 [7]: 6.48
Compound: CN(C)c1cccc2c(S(=O)(=O)NCCCCCC(=O)NO)cccc12

- pIC50 [10]: < 5.10
- pIC50 [11]: < 5.10
- pIC50 [12]: < 5.10
- pIC50 [13]: < 5.10
- pIC50 [14]: < 5.10
- pIC50 [15]: < 5.10
- pIC50 [16]: < 5.10
- pIC50 [17]: 5.62
- pIC50 [18]: 5.96
- pIC50 [19]: 8.10
Compound: O=C(NO)c1ccc(CN2c3ccccc3S(=O)(=O)C[C@@H]3CCCC[C@@H]32)cc1

- pIC50 [28]: 6.70
Compound: COc1cc(C(=O)OCCCCCCCOC(=O)c2ccc(O)c(OC)c2)ccc1O

- Ratio IC50 [9]: 1400
Compound: Cc1nc2ccccc2n1Cc1ccc(C(=O)NO)cc1F

From ChEMBL document CHEMBL4673207, “Recent advances in the discovery of potent and selective HDAC6 inhibitors” (Eur J Med Chem, 2018)
